Data from the NIST ThermoML archive (doi:10.1016/j.tca.2011.06.003).

Test: xn = mol fraction of the nth substance listed
Conditions: 101 kPa, Liquid; for mass density: Vibrating tube method; for speed of sound: Sing-around technique in a fixed-path interferometer

NCCNCCN [di(2-aminoethyl)amine] + CC(C)CO
Conditions | mass density, 303.15 K [kg/m3] | mass density, 308.15 K [kg/m3] | mass density, 313.15 K [kg/m3] | speed of sound, 308.15 K [m/s] | speed of sound, 313.15 K [m/s] | viscosity, 303.15 K [mPa·s] | viscosity, 308.15 K [mPa·s]
x1 = 0.054 | – | 803.363 | 799.326 | 1192.6 | 1175.8 | 3.292 | 2.815
x1 = 0.1043 | – | 814.618 | 810.545 | 1224.2 | 1208 | 3.707 | 3.146
x1 = 0.1529 | – | 824.666 | 820.566 | 1254 | 1237.8 | 4.092 | 3.463
x1 = 0.2068 | – | 834.918 | 830.795 | 1285.4 | 1269.1 | 4.365 | 3.654
x1 = 0.2535 | – | 843.178 | 839.045 | 1310.6 | 1294.6 | 4.521 | 3.768
x1 = 0.305 | – | 851.532 | 847.399 | 1337.4 | 1321.3 | 4.656 | 3.855
x1 = 0.4057 | – | 866.568 | 862.439 | 1386.9 | 1371 | 4.762 | 3.927
x1 = 0.5036 | 883.968 | 879.851 | 875.718 | 1431.7 | 1414.9 | 4.732 | 3.966
x1 = 0.6053 | 897.071 | 892.938 | 888.795 | 1475.8 | 1459.1 | 4.695 | 3.919
x1 = 0.7048 | 911.268 | 907.117 | 902.896 | 1515.9 | 1499.5 | 4.652 | 3.899
x1 = 0.8098 | 921.103 | 916.922 | 912.74 | 1556.7 | 1538.9 | 4.575 | 3.817
x1 = 0.8522 | 925.54 | 921.354 | 917.161 | 1574.1 | 1555.8 | 4.525 | 3.807
x1 = 0.9074 | 931.531 | 927.328 | 923.121 | 1595.3 | 1576.3 | 4.508 | 3.789
x1 = 0.9537 | 936.554 | 932.338 | 928.116 | 1613.3 | 1593.7 | 4.49 | 3.78
